Reference: US20260109674A1, “ALLOSTERIC MODULATION OF MUSCARINIC ACETYLCHOLINE RECEPTOR EFFICACY” (The University of Toledo, priority 2022, published 2026)
Structures can show the parent of a compound that is named as a salt. Where two headings read alike, the source gives them in different places. Marks after values point to notes of the source that are not given here.

Legend:
[1] = molecular target: T1, M1 muscarinic receptors expressed in CHO cells (Homo sapiens, UniProt P11229); experiment: [3H]-arachidonic acid release screen with and without ACh and modulator; format: cell-based; conditions: for Ratio of response of ACh with modulator to response of ACh alone, 0.1 μM ACh / Ratio of response of ACh with modulator to response of ACh alone, 100 μM ACh / Stimulation of [3H]AA release, No ACh (fraction of stimulation above the control): 10 μM modulator, Table 1; for Modulation of ACh activity (in words): [3H]AA release; for Modulation of ACh activity (in words) / Intrinsic agonist activity (in words): modulator 10 μM; for Intrinsic agonist activity (in words): without ACh
T1 construct: expressed in transfected cells; host or cells: CHO (CHO-hM1, stably transfected)
T1 sequence (P11229 1-460): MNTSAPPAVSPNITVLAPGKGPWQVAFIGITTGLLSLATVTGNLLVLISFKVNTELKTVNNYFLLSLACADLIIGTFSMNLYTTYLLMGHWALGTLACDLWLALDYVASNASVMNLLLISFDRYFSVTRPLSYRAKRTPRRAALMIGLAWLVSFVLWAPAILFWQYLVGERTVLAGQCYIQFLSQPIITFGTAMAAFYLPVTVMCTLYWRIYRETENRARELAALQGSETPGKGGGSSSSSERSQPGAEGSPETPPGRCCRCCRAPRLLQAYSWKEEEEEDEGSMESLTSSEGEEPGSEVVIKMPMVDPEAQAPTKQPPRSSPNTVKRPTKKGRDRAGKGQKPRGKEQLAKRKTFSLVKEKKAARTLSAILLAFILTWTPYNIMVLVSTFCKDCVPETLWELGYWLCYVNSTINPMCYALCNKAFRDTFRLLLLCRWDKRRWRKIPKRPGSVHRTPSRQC
Method: CHO cells expressing human M1 muscarinic receptors were cultured at 37° C. in a 5% CO2 atmosphere in F12 medium supplemented with 5% fetal bovine serum, 100 units/mL penicillin, and 100 μg/mL streptomycin.
(§1) Measurement of [^3H]AA release was performed. Stably transfected CHO-hM1 or CHO-hM3 cells were seeded on 24-well plates (Greiner Bio-One GmbH, Frickenhausen, Germany) at a density of 5.0×10^4 cells/well in 0.5 ml of F-12 medium. Cells were incubated until they attached (approximately 3 h), followed by the addition of [^3H]AA to a final concentration of 0.05 μCi of [^3H]AA per well. The cells were then grown for 16 to 20 h before the assay was performed. [^3H]AA release was measured in Eagle's basal medium with 20 mM HEPES and 2 mg/ml fatty acid-free bovine serum albumin (EM-BSA). Cells were rinsed twice with EM-BSA, followed by the addition of EM-BSA media containing experimental agents and incubated for 1 h at 37° C. The assay was terminated by aspiration of the media, and the amount of [^3H]AA released was determined by liquid scintillation counting (Beckman-Coulter LS6500).
For some assays, pretreatment with phenoxybenzamine (POB) was employed, as indicated, to reduce the number of available receptors per cell. Stock POB was made up at 10 mM in ethanol and stored at −20° C. Each well was pretreated with 0.5 ml of the appropriate concentration in PBS with 1 mM CaCl2 and 1 mM MgCl2 (PBS++) for 30 min at 37° C., followed by 5 washes with PBS++. After pretreatment, the normal protocol was followed as above.
(§2) Tabulated [^3H]AA release data are represented as a fraction of maximal release in the presence of 100 μM ACh or as the fraction of release elicited by the appropriate concentration of ACh alone, as indicated dose-response curves were normalized to the maximal response of ACh without allosteric ligand. Some response curves were analyzed using the empirical four-parameter equation: […]
Disintegration per minute (DPM) values for a single compound were obtained in triplicate, and each compound was evaluated on three separate 24-well plates. The mean values for each condition from each of the three 24-well plates were used for the statistical analysis. The baseline mean was subtracted from each value, then normalized to the mean response produced by 100 μM ACh (set at 1.0). Statistical analyses were completed on the normalized values via one-way repeated measures ANOVA with Tukey's post hoc test. Statistically significant differences are noted as follows: *, p<0.05; **, p<0.01; ***, p<0.001.

[2] = tested on: wild-type zebrafish larvae; experiment: General locomotor assay in zebrafish larvae (locomotor activity, repetitive behaviors); format: in vivo, Danio rerio; conditions: for Effect on locomotor activity, angular velocity and turn angle (in words): spontaneous swimming period
Method: Five days post fertilization (dpf) zebrafish larvae were exposed to a range of nonlethal concentrations of the compounds in a 24-well plate with appropriate controls. The movement of each larval zebrafish was monitored with the Noldus behavior recording system (Noldus Information Technology, Leesburg VA) and quantified using EthoVision® XT 15 software (Noldus Information Technology, Leesburg VA). The plate was immediately placed in the incubator for a 30-minute exposure period. After 30 minutes, the plate was transferred to the Noldus system and swimming behavior was recorded in 100% light for 30 minutes to measure spontaneous swimming behavior. The light was switched off for 10 minutes (dark period) and then switched on for 10 minutes (light period), which was then repeated for two additional cycles. In total, the larvae were exposed to three cycles of alternating 10-minute dark and light periods (100% darkness-to-100% light). […]
All data for exposure and the behavioral end points were analyzed by one-way ANOVA (factor: drug conc) followed by a Dunnett's multiple comparisons test for post hoc significance between drug concentration and control group. Statistically significant differences are noted as follows: *, p<0.05; **, p<0.01; ***, p<0.001.

[3] = tested on: wild-type zebrafish larvae; experiment: Maximum tolerated concentration (MTC) determination in zebrafish larvae; format: in vivo, Danio rerio; conditions: for Maximum Tolerated Concentration: after 24-hour exposure, Table 3
Method: Determination of maximum tolerated concentration was completed by placing 5 days post fertilization (dpf) wild-type zebrafish larvae in a 24 well plate at 6 fish per well, and one compound concentration per well. […] Death was determined by the absence of heartbeat. Additional endpoints were used to assess toxicity at non-lethal concentrations such as startle capacity (poke stimulus), abnormalities in swimming behavior (loss of dorsoventral balance), and gross morphological deformities (bent body). […] The MTC determination was used to select three doses of each compound (low, medium, high dose) to be used in behavioral assays.

[4] = molecular target: T1, M1 muscarinic receptors expressed in CHO cells; experiment: Full ACh dose-response curves of [3H]AA release fitted to the allosteric operational model; format: cell-based; conditions: for Intrinsic Efficacy-B, τB / Activation cooperativity, A-B, β / Binding cooperativity, A-B, α: allosteric operational model; for Intrinsic Efficacy-B, τB: Em set to 2.0; for Activation cooperativity, A-B, β / Binding cooperativity, A-B, α: with ACh; for Effect on ACh potency and efficacy in full ACh dose-response curves (in words): modulator 10 μM
Method: as §1, §2
where X is the log of the concentration of the ligand used, Y is the amount of response, C50 is the concentration of the ligand that produces 50% of the maximal effect, Top and Bottom are the top and bottom plateaus of the curve, respectively, and n is related to the Hill slope for the curve. In some cases, families of response curves were analyzed according to the allosteric operational model:
where EM is the maximal response; A is the concentration of ACh; B is the concentration of the allosteric ligand; τA and τB represent the intrinsic efficacies of A and B, respectively; KA and KB are the equilibrium dissociation constants of A and B, respectively; and α and β represent the cooperativities between A and B in terms of binding and activation, respectively. Curve-fitting was carried out with GraphPad Prism, version 5.0 or 6.0 (San Diego CA).

[5] = best-fit parameter, read-out: Affinity-B, KB (converted)
[6] = Table 3, test concentration not given, N = 12

CCN(CC)CCOc1ccc(CN2C(=O)C(=O)c3ccccc32)cc1 [Compound 7, 1-(4-(2-(diethylamino)ethoxy)benzyl)indoline-2,3-dione]
Ratio of response of ACh with modulator to response of ACh alone, 0.1 μM ACh [1]: 0.08 ± 0.02 | Ratio of response of ACh with modulator to response of ACh alone, 100 μM ACh [1]: 1.11 ± 0.06 | Stimulation of [3H]AA release, No ACh (fraction of stimulation above the control) [1]: 0.02 ± 0.01 | Modulation of ACh activity (in words) [1]: primarily decreased potency and slightly enhanced the efficacy of ACh activity | Intrinsic agonist activity (in words) [1]: lacked intrinsic activity at the 10 μM concentration | Effect on locomotor activity, angular velocity and turn angle (in words) [2]: did not significantly alter locomotor activity, angular velocity, and turn angle | Maximum Tolerated Concentration [3]: 10 µM | Intrinsic Efficacy-B, τB ([4]; best-fit parameter): 0.0317 ± 0.0205 | Activation cooperativity, A-B, β ([4]; best-fit parameter): 0.991 ± 0.120 | Binding cooperativity, A-B, α ([4]; best-fit parameter): 0.180 ± 0.0855 | Kb [4, 5]: 631 nM | Effect on ACh potency and efficacy in full ACh dose-response curves (in words) [4]: decreased ACh potency with little impact on ACh efficacy

COc1c(I)cc(CN2C(=O)C(=O)c3ccccc32)cc1I [Compound 8a, 1-(3,5-diiodo-4-methoxybenzyl)indoline-2,3-dione]
Ratio of response of ACh with modulator to response of ACh alone, 0.1 μM ACh [1]: 2.64 ± 0.10 | Ratio of response of ACh with modulator to response of ACh alone, 100 μM ACh [1]: 1.62 ± 0.06 | Stimulation of [3H]AA release, No ACh (fraction of stimulation above the control) [1]: 0.24 ± 0.04 | Modulation of ACh activity (in words) [1]: significant enhancement of ACh activity | Intrinsic agonist activity (in words) [1]: lacked intrinsic activity at the 10 μM concentration | Concentration with significant effects on locomotor activity and repetitive behaviors ([2]; compared with BQCA): 1 µM | Maximum Tolerated Concentration [3]: 30 µM | Signs of toxicity (in words) ([3]; concentrations up to 30 μM, the highest concentration tested): did not produce any signs of toxicity | Intrinsic Efficacy-B, τB ([4]; best-fit parameter): 0.174 ± 0.0289 | Activation cooperativity, A-B, β ([4]; best-fit parameter): 3.26 ± 0.431 | Binding cooperativity, A-B, α ([4]; best-fit parameter): 0.689 ± 0.241 | Affinity-B, KB ([4]; best-fit parameter, values given are logarithms (cf. logKA in footnote)): −6.26 ± 0.152 | Effect on ACh potency and efficacy in full ACh dose-response curves (in words) [4]: dramatically enhanced ACh efficacy | Kb ([4]; read-out: affinity for M1 muscarinic receptors (KB)): 589 nM

COc1c(Br)cc(CN2C(=O)C(=O)c3ccccc32)cc1Br [Compound 8c, 1-(3,5-dibromo-4-methoxybenzyl)indoline-2,3-dione]
Ratio of response of ACh with modulator to response of ACh alone, 0.1 μM ACh [1]: 2.15 ± 0.05 | Ratio of response of ACh with modulator to response of ACh alone, 100 μM ACh [1]: 1.58 ± 0.01 | Stimulation of [3H]AA release, No ACh (fraction of stimulation above the control) [1]: 0.23 ± 0.00 | Maximum Tolerated Concentration [3]: 30 µM | Intrinsic Efficacy-B, τB ([4]; best-fit parameter): 0.328 ± 0.0555 | Activation cooperativity, A-B, β ([4]; best-fit parameter): 3.89 ± 0.610 | Binding cooperativity, A-B, α ([4]; best-fit parameter): 0.980 ± 0.388 | Kb [4, 5]: 2950 nM | Effect on ACh potency and efficacy in full ACh dose-response curves (in words) [4]: dramatically enhanced ACh efficacy

COc1cccc(CN2C(=O)C(=O)c3ccccc32)c1 [Compound 8j, 1-(3-methoxybenzyl)indoline-2,3-dione]
Ratio of response of ACh with modulator to response of ACh alone, 0.1 μM ACh [1]: 1.06 ± 0.15 | Ratio of response of ACh with modulator to response of ACh alone, 100 μM ACh [1]: 0.96 ± 0.10 | Stimulation of [3H]AA release, No ACh (fraction of stimulation above the control) [1]: 0.02 ± 0.02 | Effect on locomotor activity, angular velocity and turn angle (in words) [2]: significantly decreased locomotor activity and increased angular velocity and absolute turn angle | Effect on ACh potency and efficacy in full ACh dose-response curves (in words) [4]: enhances ACh potency

CCN(CC)CCOc1c(Br)cc(CN2C(=O)C(=O)c3ccccc32)cc1Br [Compound 8l, 1-(3,5-dibromo-4-(2-(diethylamino)ethoxy)benzyl)indoline-2,3-dione hydrochloride]
Ratio of response of ACh with modulator to response of ACh alone, 0.1 μM ACh [1]: 0.19 ± 0.06 | Ratio of response of ACh with modulator to response of ACh alone, 100 μM ACh [1]: 0.87 ± 0.06 | Stimulation of [3H]AA release, No ACh (fraction of stimulation above the control) [1]: 0.04 ± 0.00 | Modulation of ACh activity (in words) [1]: results only in a decrease in ACh activity | Angular Velocity [2, 6]: 184.7 ± 17.0*** % of control | Total Distance Moved [2, 6]: 33.5 ± 4.4** % of control | Variance of Turn Angle [2, 6]: 166.1 ± 12.5*** % of control | Maximum Tolerated Concentration [3]: 10 µM | Effect on ACh potency and efficacy in full ACh dose-response curves (in words) [4]: decreased ACh potency with little impact on ACh efficacy
